We go through 3 compounds from US12544388B2, “Compound for treating and/or preventing diseases caused by coronavirus and use thereof” (SHANGHAITECH UNIVERSITY, priority 2020, dated 2026).

For data set [1] the following is noted: Phase I, patients with advanced solid tumors; cited from earlier work.
In data set [2] the target is SARS-CoV-2 papain-like protease (Severe acute respiratory syndrome coronavirus 2, UniProt P0DTD1). It is filed as biochemical. Particulars: for inhibition of papain-like protease activity versus negative control: 50 μM inhibitor, 0.2 μM enzyme (FIG. 4, FIG. 5).
Another data set is described as follows: in vitro. Particulars: African green monkey.

One may read the pIC50 as −log10 of the IC50, conventionally taken in molar units.

pIC50: −log10 of the molar value.

As to `Br.COCCn1c2c([n+](Cc3cnccn3)c1C)C(=O)c1ccccc1C2=O` [YM155, Sepantronium Bromide], in data set [1], the “MTD (maximum tolerated dose)” value was 8.0 mg/m^2/d. In addition, in data set [2] (200 nM enzyme, 20 μM substrate, 10 min room temperature, read-out: IC50, inhibitory activity on novel coronavirus papain-like protease), the pIC50 was 5.61. In “in vitro”, this compound had a CC50 of over 133 µM.

With `C[C@H]1COC2=C1C(=O)C(=O)c1c2ccc2c1CCCC2(C)C` [cryptotanshinone, Cryptotanshinone], the “inhibition of papain-like protease activity versus negative control” value in data set [2] is recorded as “significantly inhibit”. This compound also returned a CC50 in the data set “in vitro” of over 300 µM.

Consider `Cc1coc2c1C(=O)C(=O)c1c-2ccc2c(C)cccc12` [tanshinone I, Tanshinone I], for which the “inhibition of papain-like protease activity versus negative control” value in data set [2] was “significantly inhibit”. Also, in the data set “in vitro”, the CC50 is over 300 µM.
